From patent US4532202A, “Coupler for photography” (Konishiroku Photo Industry Co., Ltd., priority 1982, dated 1985)

How the values were obtained:
[1] = Photographic characteristics (sensitivity, maximum density, maximum absorption) of silver halide color photographic material containing coupler; conditions: cyan dye formed
Procedure: The resultant solution was mixed with 5 ml of an aqueous 10% solution of Alkanol B (aklylnaphthalene sulfonate, produced by Du Pont de Nemours & Co.) and 200 ml of an aqueous 5% gelatin solution and emulsified by means of a colloid mill to prepare respective coupler dispersions. Then, each of these coupler dispersions was added to 500 g of a gelatin-silver chlorobromide emulsion, and the mixture was applied on polyethylene coated paper, followed by drying, to prepare six kinds of light-sensitive silver halide color photographic materials. These samples were subjected to wedge exposure following the conventional procedure and then processed as follows.
Processing step (30° C.)
Color developing 3 min. 30 sec.
Bleach-fixing 1 min. 30 sec.
Washing with water 2 min.
In the following, compositions of respective processing solutions are shown.
[Composition of color developing solution]
4-Amino-3-methyl-N--ethyl-N--
(β-methanesulfonamidoethyl)-aniline sulfate
Sodium hexamethaphosphate 2.5 g
Anhydrous sodium sulfite 1.85 g
Made up to one liter with addition of water, and adjusted to pH 10.30 with sodium hydroxide.
[Composition of bleach-fixing solution]
Iron ammonium salt of ethylenediaminetetraacetic
Diammonium salt of ethylenediaminetetraacetic
Ammonium thiosulfate 124.5 g
Sodium metabisulfite 13.3 g
Anhydrous sodium sulfite 2.7 g
Made up to one liter with addition of water.
For samples obtained by the above processing, photographic characteristics were measured respectively. Measurements were conducted by use of PDA-60 Model sensitometer (produced by Konishiroku Photo Industry Co.) The results are shown in Table 3 below.
The sensitivity values are shown as relative sensitivities to the value of the sample having the highest sensitivity as 100.

[2] = Solubility test of couplers in di-n-butyl phthalate / ethyl acetate, visual evaluation of crystal precipitation; format: physicochemical; parameters: key: A: no precipitation; B: slight precipitation; C: precipitation in large amount; conditions: 1 g coupler in 1 ml di-n-butyl phthalate and 4 ml ethyl acetate, dissolved at 70° C., left to stand at 20° C.
Procedure: Solubility tests were conducted by use of the couplers for photography of this invention and Control couplers as indicated in Table 2 below. Each one gram of respective couplers was added to a mixture of 1 ml of di-n-butyl phthalate and 4 ml of ethyl acetate and the resulting mixture was heated at 70° C. for complete dissolution, followed by sealing with a stopper. Each sample was left to stand at 20° C. and precipitation of crystals was evaluated by visual observation. In Table 2, in the evaluation column, A represents no precipitation, B slight precipitation and C precipitation in large amount.

Row | SMILES | Maximum absorption [1] [nm] | Evaluation of solubility After 6 hours [2] | Evaluation of solubility After 12 hours [2] | Evaluation of solubility After one hour [2]
1 | CCCCCCCCCCCCC(Oc1ccc(O)c(C(C)(C)C)c1)C(=O)Nc1ccc(NC(=O)c2ccccc2F)c(O)c1 (stereo not drawn) [Control coupler (G)] | 640 |  |  | 
2 | CCC(Oc1ccc(C(C)(C)CC)cc1C(C)(C)CC)C(=O)Nc1cc(Cl)c(C)c(Cl)c1O (stereo not drawn) [Control coupler (E)] | 654 |  |  | 
3 | CCCCCCCCCCCCC(Oc1ccc(NS(=O)(=O)CCCC)cc1)C(=O)Nc1cc(O)c(NC(=O)c2ccccc2)cc1Cl (stereo not drawn) [Control coupler (F)] | 641 |  |  | 
4 | CCCCCCCCC(Oc1ccc(C(C)(C)CC)cc1C(C)(C)CC)C(=O)Nc1cc(O)c(NC(=O)c2c(F)c(F)c(F)c(F)c2F)cc1Cl (stereo not drawn) [Control coupler (C)] |  | C | C | B
5 | CCCCCCCCCCCCC(Oc1ccc(C(C)(C)CC)cc1C(C)(C)CC)C(=O)Nc1cc(O)c(NC(=O)c2c(F)c(F)c(F)c(F)c2F)cc1Cl (stereo not drawn) [Control coupler (D)] |  | B | C | B
6 | CCCCCCCCCCCCCCCc1cccc(OC(C(=O)Nc2cc(O)c(NC(=O)c3c(F)c(F)c(F)c(F)c3F)cc2Cl)C(C)C)c1 (stereo not drawn) [Exemplary compound (I-10), 2-(2,3,4,5,6-pentafluoro)benzamido-4-chloro-5-[α-(m-pentadecylphenoxy)-β-methylbutaneamido]phenol] | 654 |  |  | 
7 | CCCCS(=O)(=O)Nc1ccc(OC(C(=O)Nc2cc(O)c(NC(=O)c3c(F)c(F)c(F)c(F)c3F)cc2Cl)C(C)C)cc1 (stereo not drawn) [Exemplary compound (I-11)] | 657 |  |  | 
8 | CCC(C)C(Oc1ccc(C(C)(C)CC)cc1C(C)(C)CC)C(=O)Nc1cc(O)c(NC(=O)c2c(F)c(F)c(F)c(F)c2F)cc1Cl (stereo not drawn) [Exemplary compound (I-4)] |  | A | A | A
9 | CCC(Oc1ccc(C(C)(C)CC)cc1C(C)(C)CC)C(=O)Nc1cc(O)c(NC(=O)c2c(F)c(F)c(F)c(F)c2F)cc1Cl (stereo not drawn) [Control coupler (B)] |  | C | C | B
10 | CC(C)C(Oc1ccc(C(C)(C)C)cc1C(C)(C)C)C(=O)Nc1cc(O)c(NC(=O)c2c(F)c(F)c(F)c(F)c2F)cc1Cl (stereo not drawn) [Exemplary compound (I-3)] |  | A | A | A
11 | CCC(C)(C)c1ccc(OC(C(=O)Nc2cc(O)c(NC(=O)c3c(F)c(F)c(F)c(F)c3F)cc2Cl)C(C)C)c(C(C)(C)CC)c1 (stereo not drawn) [Exemplary compound (I-2), 2-(2,3,4,5,6-pentafluoro)benazmido-4-chloro-5-[α-(2,4-di-t-amylphenoxy)-β-methylbutaneamido]phenol] | 655 | A | A | A
